Test results as given in US12521389B2, “Therapeutic approach to lung disease” (The Regents of the University of California, priority 2019, dated 2026).
Entries after “also recorded” stand apart in the source; their conditions may differ.

Tests used:
Type in all cases: in vivo
[1] = molecular target: T1, CGRP receptor (Mus musculus, UniProt Q9R1W5+Q9WTJ5); assay: Body size / weight gain after intranasal BIBN-4096 in NEHI mouse model; details: analyzed at P22
T1 construct: from tissue; host or cells: Live mouse pups on a B6 background (Nkx2-1 R191L NEHI model and control genotypes); lung, intranasal dosing
Description: (§1) BIBN-4096 (Fisher Scientific #45-611-0) was dissolved in 100% DMSO (Sigma-Aldrich D2650) and further diluted to working solution with saline before use. 10 ul of 0.3 mg/ml BIBN-4096 was intranasally administrated to pups at P10, P12, P14, P16 and P18.

[2] = molecular target: T1, CGRP receptor; assay: Lung wet-to-dry ratio (pulmonary edema) after intranasal BIBN-4096 in NEHI mouse model; details: Nkx2-1^L/L mutants; intranasal 10 ul of 0.3 mg/ml at P10, P12, P14, P16, P18; analyzed at P22; vs vehicle DMSO
Description: Each lung was removed from sacrificed mouse right after euthanasia. Excessive blood was removed by kimwipe and wet weight mw was measured right after dissection. The lung was then placed on the foil at 70° C. for 24 hours. Dry weight […] was then measured by reweighing the dried lung. Wet-to-dry ratio was calculated as: W/D ratio=mw/md.
as §1

[3] = molecular target: T1, CGRP receptor; assay: Oxygen saturation (SpO2) by pulse-ox after intranasal BIBN-4096 in NEHI mouse model; details: Nkx2-1^L/L mutants; intranasal 10 ul of 0.3 mg/ml at P10-P18; analyzed at P22; vs vehicle DMSO
Description: Pups were shaved and […] by isoflurane while pulse-ox (MouseOxPlus, Starr Life Sciences) was performing. The SpO2 reads were recorded after 5 minutes of stable measurement.
as §1

T1 sequence (Q9R1W5 23-463): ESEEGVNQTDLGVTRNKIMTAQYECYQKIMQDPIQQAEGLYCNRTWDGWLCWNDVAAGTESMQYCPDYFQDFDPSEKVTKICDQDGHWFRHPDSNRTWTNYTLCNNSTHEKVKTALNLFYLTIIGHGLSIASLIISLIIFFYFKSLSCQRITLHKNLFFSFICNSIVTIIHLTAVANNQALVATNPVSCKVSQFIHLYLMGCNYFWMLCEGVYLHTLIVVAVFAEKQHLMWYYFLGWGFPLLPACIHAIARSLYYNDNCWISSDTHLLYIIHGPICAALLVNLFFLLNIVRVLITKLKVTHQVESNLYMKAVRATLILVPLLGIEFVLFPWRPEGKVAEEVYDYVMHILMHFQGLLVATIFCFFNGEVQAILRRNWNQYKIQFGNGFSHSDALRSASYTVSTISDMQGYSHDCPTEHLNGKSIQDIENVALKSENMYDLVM
T1 sequence (Q9WTJ5 27-148): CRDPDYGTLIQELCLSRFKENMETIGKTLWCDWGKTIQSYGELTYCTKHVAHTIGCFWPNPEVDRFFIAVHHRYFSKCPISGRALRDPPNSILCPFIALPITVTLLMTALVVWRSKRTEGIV

NCCCC[C@H](NC(=O)[C@@H](Cc1cc(Br)c(O)c(Br)c1)NC(=O)N1CCC(N2Cc3ccccc3NC2=O)CC1)C(=O)N1CCN(c2ccncc2)CC1 [BIBN-4096, N-((1R)-2-(((1S)-5-amino-1-((4-(pyridin-4-yl)piperazin-1-yl)carbonyl)pentyl)amino)-1-(3,5-dibromo-4-hydroxybenzyl)-2-oxoethyl)-4-(2-oxo-1,4-dihydroquinazolin-3 (2H)-yl) piperidine-1-carboxamide]
Body size / weight gain ([1]; Nkx2-1^L/L mutants, intranasal 10 ul of 0.3 mg/ml at P10-P18, vs vehicle DMSO): clear reversal; also recorded: improved size | Effects of treatment in control genotype groups ([1]; control genotype groups, intranasal P10-P18, vs vehicle DMSO (FIG. 9B)): did not lead to detectable effects | Lung wet-to-dry ratio (pulmonary edema) [2]: clear reversal; also recorded: attenuation of fluid in lung | Oxygen saturation measured by pulse-ox (gas-exchange) [3]: clear reversal; also recorded: improved gas-exchange efficiency
